Values of other authors in patent US5807857A, “Piperazine, piperidine and tetrahydropyridine derivative of indol-3-alkyl as 5-HT1D-α agonists” (Merck Sharp & Dohme Ltd., priority 1994, dated 1998).

Columns and labels:
[1] = tested on: human 5-HT1Dα and 5-HT1Dβ receptor subtypes; conditions: cf. WO-A-91/17174, Table 1
[2] = administration to humans at therapeutic doses

Compound: CNS(=O)(=O)Cc1ccc2[nH]cc(CCN(C)C)c2c1 [sumatriptan]
- discrimination between the human 5-HT1Dα and 5-HT1Dβ receptor subtypes [1]: barely discriminates
- adverse cardiovascular events in humans [2]: certain adverse cardiovascular events
